Test results as given in patent publication US4232008A, “Tetrapeptides and methods” (Ortho Pharmaceutical Corporation, priority 1978, dated 1980).
Square brackets hold non-standard residues; d marks the D form. Ends that are not written are not given here. Peptide text beside a SMILES is read from it. Glx = not defined here; Sar = CNCC(=O)O

Tests used:
[1] = system: Th-1+ T-lymphocytes and Bu-1+ B-lymphocytes (differentiation of inducible bone marrow cells); experiment: chicken induction assay; format: cell-based; settings: for biological activity: induction of differentiation of Th-1+ T and Bu-1+ B lymphocytes, compared with ubiquitin: chicken bone marrow cells, cytotoxicity index readout; for concentration at which activity was observed: chicken induction assay
Description: To determine the activity and characteristics of the tetrapeptide produced in Example I, the following chicken induction assay was employed. This assay is described in greater detail in Brand, et. al., Science, 193 319-321 (July 23, 1976) and references contained therein.
Bone marrow from newly-hatched chickens was selected as a source of inducible cells because it lacks an appreciable number of Bu-1^+ or Th-1^+ cells. Pooled cells from femur and tibiotarsus of five newly-hatched chicks of strains SC (Hy-Line) were fractionated by ultracentrifugation on a five-layer discontinuous bovine serum albumin (BSA) gradient. Cells from the two lighter layers were combined, washed, and suspended for incubation at a concentration of 5×10^6 cells per milliliter with the appropriate concentration of test polypeptide in RPMI 1630 medium supplemented with 15 mM hepes, 5 percent γ-globulin-free fetal calf serum, deoxyribonuclease (14 to 18 unit/ml), heparin (5 unit/ml), penicillin (100 unit/ml), and streptomycin (100 μg/ml). Controls were incubated with BSA (1 μg/ml) or medium alone. After incubation, the cells were tested in the cytotoxicity assay using chicken Cl and guinea pig C2 to C9 complement fractions as described in the reference article. The proportion of Bu-1^+ or Th-1^+ cells in each layer was calculated as a cytotoxicity index, 100 (a-b)/a, where a and b are the percentages of viable cells in the complement control and test preparation, respectively. The percentage of cells induced was obtained by subtracting the mean values in the control incubations without inducing agents (usually 1 to 3 percent) from those of the test inductions.
This high dose of ubiquitin inactivates the ubiquitin receptors and thus prevents the induction of cells by any agent which acts through these receptors.

T cells and B cells = settings: applicant's published investigation; cited from earlier work
T cells = settings: E rosette assay, Bach articles; cited from earlier work
[2] = system: cytotoxic lymphocyte precursors (CLP); experiment: microculture limiting dilution assay of cytotoxic lymphocyte precursor frequencies after injection of the drug; format: in vivo, mice (C57 BL/6J); settings: in vitro assay of spleen cells after administration
Procedure: To further illustrate the utility of the subject polypeptides, this example describes a microculture assay for estimating the frequencies of the cytotoxic lymphocytes produced upon stimulation by allogenic antigens. The frequencies of cytotoxic precursors between control animals and animals injected with various concentrations of the drug were compared by a limiting dilution assay.
The test animals (C57 BL/6J) were injected (i.v. or i.p.) with various concentrations of H--SAR--LYS--SAR--GLN--NH2 (the drug; identification no. G040) in 0.2 ml volume 24 hours before they were sacrificed for the experiments.
Cell suspensions from spleens of C57 BL/6J mice or DBA/2J mice were prepared by mincing the organ and pressing them through a wire mesh (60 gauge) with the plunger of a 5 c.c. syringe into a falcon petri dish (falcon 3002, 15×60 mm). The cell suspensions were allowed to stand at room temperature for 10 minutes to let the big chunks of tissue settle. The cell suspensions were then transferred to 15 ml Corning centrifuge tubes (Corning 25310) and spun for 10 minutes at 1500 RPM in the Beckmen TJ-6 centrifuge. […] After the third wash, the responder (C57 BL/6J) cells were resuspended in culture medium and counted in the Coulter counter. […] The DBA cells were then resuspended in the culture medium and counted in the Coulter counter. […]

## C[C@H](N)C(=O)N[C@@H](CCCCN)C(=O)N[C@@H](CO)C(=O)N[C@@H](CCC(N)=O)C(=O)O [Example I, H--ALA--LYS--SER--GLN--OH] (H-AKSQ-OH)
[1]
  biological activity: induction of differentiation of Th-1+ T and Bu-1+ B lymphocytes, compared with ubiquitin: biological activity similar to that of ubiquitin
  concentration at which activity was observed: ng/ml concentrations

## QAKSQGGSN [H--GLN--ALA--LYS--SER--GLN--GLY--GLY--SER--ASN--OH, reference compound]
[1]
  biological activity: induction of differentiation of Th-1+ T and Bu-1+ B lymphocytes, compared with ubiquitin: biological activity similar to that of ubiquitin

## GLX--ALA--LYS--SER--GLN--GLY--GLY--SER--ASN (Glx-AKSQGGSN; reading uncertain; also: N-terminal Glx: Gln or pyroglutamic acid, printed as GLX--ALA--LYS--SER--GLN--GLY--GLY--SER--ASN) [FTS, nonapeptide isolated from porcine serum by Bach; GLX is glutamine or pyroglutamic acid]
T cells and B cells
  differentiation of T cells and B cells: differentiated both T cells and B cells
T cells
  differentiation of T cells versus B cells: selectively differentiated T cells (and not B cells)

## C[C@@H](N)C(=O)N[C@@H](CCCCN)C(=O)N[C@H](C)C(=O)N[C@@H](CCC(N)=O)C(N)=O [H--D--ALA--LYS--D--ALA--GLN--NH2] (H-[dA]K[dA]Q-NH2)
[1]
  biological activity: induction of differentiation of Th-1+ T and Bu-1+ B lymphocytes, compared with ubiquitin: biological activity similar to that of ubiquitin

## CNCC(=O)N[C@@H](C)C(=O)N[C@@H](CCCCN)C(=O)N[C@@H](CO)C(=O)N[C@@H](CCC(N)=O)C(=O)O [H--SAR--ALA--LYS--SER--GLN--OH] (H-[Sar]AKSQ-OH)
[1]
  biological activity: induction of differentiation of Th-1+ T and Bu-1+ B lymphocytes, compared with ubiquitin: biological activity similar to that of ubiquitin

## CNCC(=O)N[C@@H](CCCCN)C(=O)N[C@H](C)C(=O)N[C@@H](CCC(N)=O)C(N)=O [H--SAR--LYS--D--ALA--GLN--NH2] (H-[Sar]K[dA]Q-NH2)
[1]
  biological activity: induction of differentiation of Th-1+ T and Bu-1+ B lymphocytes, compared with ubiquitin: biological activity similar to that of ubiquitin

## QAKSQ [H--GLN--ALA--LYS--SER--GLN--OH]
[1]
  biological activity: induction of differentiation of Th-1+ T and Bu-1+ B lymphocytes, compared with ubiquitin: biological activity similar to that of ubiquitin

## CNCC(=O)N[C@@H](CCCCN)C(=O)N(C)CC(=O)N[C@@H](CCC(N)=O)C(N)=O [H--SAR--LYS--SAR--GLN--NH2] (H-[Sar]K[Sar]Q-NH2)
[2]
  effect on in vivo production of cytotoxic lymphocyte precursors upon stimulation by allogenic antigens: promoted the production of cytotoxic lymphocyte precursors
[1]
  biological activity: induction of differentiation of Th-1+ T and Bu-1+ B lymphocytes, compared with ubiquitin: biological activity similar to that of ubiquitin
  concentration at which activity was observed: ≥ 0.1 pg/mL
